system: TMD8; experiment: Antiproliferative activity against BCL6 dependent human TMD8 cells after 3 days by CellTiter-Glo assay; format: functional; details: TMD8, 72 h

SMILES | GI50 [µM]
O=C1CCc2cc3cc(c2N1Cc1ccccc1)OC/C=C/CO[C@H]1C[C@@H](CO)N(C1)c1cc(n2ncc(Cl)c2n1)N3 | 10
O=C1CCc2cc3cc(c2N1CCCN1CCOCC1)OC/C=C/CO[C@H]1C[C@@H](CO)N(C1)c1cc(n2ncc(Cl)c2n1)N3 | 10
O=C(O)C[C@@H]1C[C@H]2CN1c1cc(n3ncc(Cl)c3n1)Nc1cc3c(c(c1)OC/C=C/CO2)N(CC1CC(F)(F)C1)C(=O)CC3 | 15.8
O=C1CCc2cc3cc(c2N1CC1CC(F)(F)C1)OC/C=C/CO[C@H]1C[C@@H](CO)N(C1)c1cc(n2ncc(Cl)c2n1)N3 | 10
CN1C(=O)CCc2cc3cc(c21)OC/C=C/CO[C@H]1C[C@@H](CO)N(C1)c1cc(n2ncc(Cl)c2n1)N3 | 3.98

system: OCI-Ly1; experiment: Antiproliferative activity against BCL6 dependent human OCI-LY1 cells after 3 days by CellTiter-Glo assay; format: functional; details: OCI-Ly1, 72 h

SMILES | GI50 [µM]
O=C1CCc2cc3cc(c2N1Cc1ccccc1)OC/C=C/CO[C@H]1C[C@@H](CO)N(C1)c1cc(n2ncc(Cl)c2n1)N3 | 12.6
O=C1CCc2cc3cc(c2N1CCCN1CCOCC1)OC/C=C/CO[C@H]1C[C@@H](CO)N(C1)c1cc(n2ncc(Cl)c2n1)N3 | 10
O=C(O)C[C@@H]1C[C@H]2CN1c1cc(n3ncc(Cl)c3n1)Nc1cc3c(c(c1)OC/C=C/CO2)N(CC1CC(F)(F)C1)C(=O)CC3 | 15.8
O=C1CCc2cc3cc(c2N1CC1CC(F)(F)C1)OC/C=C/CO[C@H]1C[C@@H](CO)N(C1)c1cc(n2ncc(Cl)c2n1)N3 | 7.94
CN1C(=O)CCc2cc3cc(c21)OC/C=C/CO[C@H]1C[C@@H](CO)N(C1)c1cc(n2ncc(Cl)c2n1)N3 | 6.31

system: not listed separately; experiment: Octanol-buffer partition co-efficient, log D of the compound at pH 7.4 after 30 mins by shake flask method; format: physicochemical; details: not given

SMILES | logD at 0.5 h
N#Cc1cnn2c(Nc3ccc4c(c3)CCC(=O)N4)cc(N3CCC[C@H]3CO)nc12 | 2.3

system: KARPAS-422; experiment: Antiproliferative activity against BCL6 […] human KARPAS422 cells after 3 days by CellTiter-Glo assay; format: functional; details: KARPAS-422, 72 h

SMILES | GI50 [µM]
O=C1CCc2cc3cc(c2N1Cc1ccccc1)OC/C=C/CO[C@H]1C[C@@H](CO)N(C1)c1cc(n2ncc(Cl)c2n1)N3 | 25.1
O=C1CCc2cc3cc(c2N1CCCN1CCOCC1)OC/C=C/CO[C@H]1C[C@@H](CO)N(C1)c1cc(n2ncc(Cl)c2n1)N3 | 12.6
O=C(O)C[C@@H]1C[C@H]2CN1c1cc(n3ncc(Cl)c3n1)Nc1cc3c(c(c1)OC/C=C/CO2)N(CC1CC(F)(F)C1)C(=O)CC3 | 20
O=C1CCc2cc3cc(c2N1CC1CC(F)(F)C1)OC/C=C/CO[C@H]1C[C@@H](CO)N(C1)c1cc(n2ncc(Cl)c2n1)N3 | 10
CN1C(=O)CCc2cc3cc(c21)OC/C=C/CO[C@H]1C[C@@H](CO)N(C1)c1cc(n2ncc(Cl)c2n1)N3 | 5.01

system: U2932; experiment: Antiproliferative activity against BCL6 dependent human U2932 cells after 3 days by CellTiter-Glo assay; format: functional; details: U2932, 72 h

SMILES | GI50 [µM]
O=C1CCc2cc3cc(c2N1Cc1ccccc1)OC/C=C/CO[C@H]1C[C@@H](CO)N(C1)c1cc(n2ncc(Cl)c2n1)N3 | 7.94
O=C1CCc2cc3cc(c2N1CCCN1CCOCC1)OC/C=C/CO[C@H]1C[C@@H](CO)N(C1)c1cc(n2ncc(Cl)c2n1)N3 | 10
O=C(O)C[C@@H]1C[C@H]2CN1c1cc(n3ncc(Cl)c3n1)Nc1cc3c(c(c1)OC/C=C/CO2)N(CC1CC(F)(F)C1)C(=O)CC3 | 15.8
O=C1CCc2cc3cc(c2N1CC1CC(F)(F)C1)OC/C=C/CO[C@H]1C[C@@H](CO)N(C1)c1cc(n2ncc(Cl)c2n1)N3 | 6.31
CN1C(=O)CCc2cc3cc(c21)OC/C=C/CO[C@H]1C[C@@H](CO)N(C1)c1cc(n2ncc(Cl)c2n1)N3 | 5.01

system: OCI-LY19; experiment: Antiproliferative activity against BCL6 independent human OCI-LY19 cells after 3 days by CellTiter-Glo assay; format: functional; details: OCI-LY19, 72 h

SMILES | GI50 [µM]
O=C1CCc2cc3cc(c2N1Cc1ccccc1)OC/C=C/CO[C@H]1C[C@@H](CO)N(C1)c1cc(n2ncc(Cl)c2n1)N3 | 10
O=C1CCc2cc3cc(c2N1CCCN1CCOCC1)OC/C=C/CO[C@H]1C[C@@H](CO)N(C1)c1cc(n2ncc(Cl)c2n1)N3 | 7.94
O=C(O)C[C@@H]1C[C@H]2CN1c1cc(n3ncc(Cl)c3n1)Nc1cc3c(c(c1)OC/C=C/CO2)N(CC1CC(F)(F)C1)C(=O)CC3 | 10
O=C1CCc2cc3cc(c2N1CC1CC(F)(F)C1)OC/C=C/CO[C@H]1C[C@@H](CO)N(C1)c1cc(n2ncc(Cl)c2n1)N3 | 6.31
CN1C(=O)CCc2cc3cc(c21)OC/C=C/CO[C@H]1C[C@@H](CO)N(C1)c1cc(n2ncc(Cl)c2n1)N3 | 5.01

system: OCI-Ly10; experiment: Antiproliferative activity against BCL6 dependent human OCI-LY10 cells after 3 days by CellTiter-Glo assay; format: functional; details: OCI-Ly10, 72 h

SMILES | GI50 [µM]
O=C1CCc2cc3cc(c2N1Cc1ccccc1)OC/C=C/CO[C@H]1C[C@@H](CO)N(C1)c1cc(n2ncc(Cl)c2n1)N3 | 10
O=C1CCc2cc3cc(c2N1CCCN1CCOCC1)OC/C=C/CO[C@H]1C[C@@H](CO)N(C1)c1cc(n2ncc(Cl)c2n1)N3 | 7.94
O=C(O)C[C@@H]1C[C@H]2CN1c1cc(n3ncc(Cl)c3n1)Nc1cc3c(c(c1)OC/C=C/CO2)N(CC1CC(F)(F)C1)C(=O)CC3 | 15.8
O=C1CCc2cc3cc(c2N1CC1CC(F)(F)C1)OC/C=C/CO[C@H]1C[C@@H](CO)N(C1)c1cc(n2ncc(Cl)c2n1)N3 | 7.94
CN1C(=O)CCc2cc3cc(c21)OC/C=C/CO[C@H]1C[C@@H](CO)N(C1)c1cc(n2ncc(Cl)c2n1)N3 | 6.31

target: T1, B-cell lymphoma 6 protein (Homo sapiens, UniProt P41182, C67R/C84N/C8Q); experiment: Binding affinity to N-terminal His6-tagged human BCL6 BTB domain C8Q/C67R/C84N mutant expressed in Escherichia coli BL21 (DE3) by surface plasmon resonance spectrometry; details: not given

SMILES | Kd [µM]
N#Cc1cnn2c(Nc3ccc4c(c3)CCC(=O)N4)cc(N3CCC[C@H]3CC(=O)O)nc12 | 1.1
N#Cc1cnn2c(Nc3ccc4c(c3)CCC(=O)N4)cc(N3CCC[C@H]3CO)nc12 | 0.5
CCNc1cc(-c2cccnc2)nc2ccnn12 | 689
N#Cc1cnn2c(NC3CC3)ccnc12 | 319

system: OCI-Ly3; experiment: Antiproliferative activity against BCL6 dependent human OCI-LY3 cells after 3 days by CellTiter-Glo assay; format: functional; details: OCI-Ly3, 72 h

SMILES | GI50 [µM]
O=C1CCc2cc3cc(c2N1Cc1ccccc1)OC/C=C/CO[C@H]1C[C@@H](CO)N(C1)c1cc(n2ncc(Cl)c2n1)N3 | 12.6
O=C1CCc2cc3cc(c2N1CCCN1CCOCC1)OC/C=C/CO[C@H]1C[C@@H](CO)N(C1)c1cc(n2ncc(Cl)c2n1)N3 | 10
O=C(O)C[C@@H]1C[C@H]2CN1c1cc(n3ncc(Cl)c3n1)Nc1cc3c(c(c1)OC/C=C/CO2)N(CC1CC(F)(F)C1)C(=O)CC3 | 20
O=C1CCc2cc3cc(c2N1CC1CC(F)(F)C1)OC/C=C/CO[C@H]1C[C@@H](CO)N(C1)c1cc(n2ncc(Cl)c2n1)N3 | 12.6
CN1C(=O)CCc2cc3cc(c21)OC/C=C/CO[C@H]1C[C@@H](CO)N(C1)c1cc(n2ncc(Cl)c2n1)N3 | 6.31

target: not listed separately; experiment: Binding affinity to GABA receptor (unknown origin) by radioligand displacement assay; design: species or system Homo sapiens; details: not given

SMILES | Ki [µM]
O=C1CCc2cc3cc(c2N1Cc1ccccc1)OC/C=C/CO[C@H]1C[C@@H](CO)N(C1)c1cc(n2ncc(Cl)c2n1)N3 | 0.25

system: SUD4; experiment: Antiproliferative activity against BCL6 dependent human SUDHL4 cells after 3 days by CellTiter-Glo assay; format: functional; details: SU-DHL-4, 72 h

SMILES | GI50 [µM]
O=C1CCc2cc3cc(c2N1Cc1ccccc1)OC/C=C/CO[C@H]1C[C@@H](CO)N(C1)c1cc(n2ncc(Cl)c2n1)N3 | 15.8
O=C1CCc2cc3cc(c2N1CCCN1CCOCC1)OC/C=C/CO[C@H]1C[C@@H](CO)N(C1)c1cc(n2ncc(Cl)c2n1)N3 | 12.6
O=C(O)C[C@@H]1C[C@H]2CN1c1cc(n3ncc(Cl)c3n1)Nc1cc3c(c(c1)OC/C=C/CO2)N(CC1CC(F)(F)C1)C(=O)CC3 | 15.8
O=C1CCc2cc3cc(c2N1CC1CC(F)(F)C1)OC/C=C/CO[C@H]1C[C@@H](CO)N(C1)c1cc(n2ncc(Cl)c2n1)N3 | 10
CN1C(=O)CCc2cc3cc(c21)OC/C=C/CO[C@H]1C[C@@H](CO)N(C1)c1cc(n2ncc(Cl)c2n1)N3 | 6.31

target: 5-hydroxytryptamine receptor 1B (Homo sapiens, UniProt P28222); experiment: Agonist activity at 5-HT1B receptor (unknown origin); details: not given
Sequence (P28222 whole entry): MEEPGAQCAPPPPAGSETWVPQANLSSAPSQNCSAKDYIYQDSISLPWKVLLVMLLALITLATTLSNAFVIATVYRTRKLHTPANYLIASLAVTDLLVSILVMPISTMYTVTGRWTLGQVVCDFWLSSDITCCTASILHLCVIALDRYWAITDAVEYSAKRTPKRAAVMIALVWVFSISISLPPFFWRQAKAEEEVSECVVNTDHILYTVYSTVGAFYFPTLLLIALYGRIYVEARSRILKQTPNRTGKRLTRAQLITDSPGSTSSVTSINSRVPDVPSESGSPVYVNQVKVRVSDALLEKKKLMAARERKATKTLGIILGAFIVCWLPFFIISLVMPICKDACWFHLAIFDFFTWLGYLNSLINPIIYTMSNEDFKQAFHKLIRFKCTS

SMILES | EC50 [µM]
O=C1CCc2cc3cc(c2N1Cc1ccccc1)OC/C=C/CO[C@H]1C[C@@H](CO)N(C1)c1cc(n2ncc(Cl)c2n1)N3 | 0.57

target: T1, B-cell lymphoma 6 protein; experiment: Inhibition of SMRT2 H1426W mutant peptide binding to N-terminal His6-tagged human BCL6 BTB domain C8Q/C67R/C84N mutant expressed in Escherichia coli BL21 (DE3) preincubated for 30 mins followed by SMRT2 H1426W mutant peptide addition measured after 60 mins by time-resolved fluorescence resonance energy transfer assay; details: not given

SMILES | IC50 [µM]
N#Cc1cnn2c(Nc3ccc4c(c3)CCC(=O)N4)cc(N3CCC[C@H]3CC(=O)O)nc12 | 0.35
N#Cc1cnn2c(Nc3ccc4c(c3)CCC(=O)N4)cc(N3CCC[C@H]3CO)nc12 | 0.37
N#Cc1cnn2c(NC3CC3)cc(N3CCCC3)nc12 | > 99
N#Cc1cnn2c(Nc3ccc4c(c3)CCC(=O)N4)cc(N3CCCC3)nc12 | 2.9
N#Cc1cnn2c(Nc3ccc4c(c3)CCC(=O)N4)cc(N3CCC[C@@H]3CO)nc12 | 0.59
N#Cc1cnn2c(NC3CC3)ccnc12 | > 99
N#Cc1cnn2c(Nc3ccccc3)cc(N3CCCC3)nc12 | > 100

system: AMO1; experiment: Antiproliferative activity against BCL6 dependent human AMO1 cells after 3 days by CellTiter-Glo assay; format: functional; details: AMO1, 72 h

SMILES | GI50 [µM]
O=C1CCc2cc3cc(c2N1Cc1ccccc1)OC/C=C/CO[C@H]1C[C@@H](CO)N(C1)c1cc(n2ncc(Cl)c2n1)N3 | 25.1
O=C1CCc2cc3cc(c2N1CCCN1CCOCC1)OC/C=C/CO[C@H]1C[C@@H](CO)N(C1)c1cc(n2ncc(Cl)c2n1)N3 | 12.6
O=C(O)C[C@@H]1C[C@H]2CN1c1cc(n3ncc(Cl)c3n1)Nc1cc3c(c(c1)OC/C=C/CO2)N(CC1CC(F)(F)C1)C(=O)CC3 | 31.6
O=C1CCc2cc3cc(c2N1CC1CC(F)(F)C1)OC/C=C/CO[C@H]1C[C@@H](CO)N(C1)c1cc(n2ncc(Cl)c2n1)N3 | 25.1
CN1C(=O)CCc2cc3cc(c21)OC/C=C/CO[C@H]1C[C@@H](CO)N(C1)c1cc(n2ncc(Cl)c2n1)N3 | 5.01

system: not listed separately; experiment: Inhibition of human CK2 protein; details: not given

SMILES | IC50 [µM]
O=C1CCc2cc3cc(c2N1Cc1ccccc1)OC/C=C/CO[C@H]1C[C@@H](CO)N(C1)c1cc(n2ncc(Cl)c2n1)N3 | > 10
O=C1CCc2cc3cc(c2N1CCCN1CCOCC1)OC/C=C/CO[C@H]1C[C@@H](CO)N(C1)c1cc(n2ncc(Cl)c2n1)N3 | 5.9
O=C(O)C[C@@H]1C[C@H]2CN1c1cc(n3ncc(Cl)c3n1)Nc1cc3c(c(c1)OC/C=C/CO2)N(CC1CC(F)(F)C1)C(=O)CC3 | 0.16
CC(=O)Nc1ccc(-c2cc(NC3CC3)n3ncc(C#N)c3n2)cc1N1CC[C@@H](N(C)C)C1 | 0.012
O=C1CCc2cc3cc(c2N1CC1CC(F)(F)C1)OC/C=C/CO[C@H]1C[C@@H](CO)N(C1)c1cc(n2ncc(Cl)c2n1)N3 | 2.1
CN1C(=O)CCc2cc3cc(c21)OC/C=C/CO[C@H]1C[C@@H](CO)N(C1)c1cc(n2ncc(Cl)c2n1)N3 | 7

system: SU-DHL-2; experiment: Antiproliferative activity against BCL6 dependent human SU-DHL-2 cells after 3 days by CellTiter-Glo assay; format: functional; details: SU-DHL-2, 72 h

SMILES | GI50 [µM]
O=C1CCc2cc3cc(c2N1Cc1ccccc1)OC/C=C/CO[C@H]1C[C@@H](CO)N(C1)c1cc(n2ncc(Cl)c2n1)N3 | 10
O=C1CCc2cc3cc(c2N1CCCN1CCOCC1)OC/C=C/CO[C@H]1C[C@@H](CO)N(C1)c1cc(n2ncc(Cl)c2n1)N3 | 10
O=C(O)C[C@@H]1C[C@H]2CN1c1cc(n3ncc(Cl)c3n1)Nc1cc3c(c(c1)OC/C=C/CO2)N(CC1CC(F)(F)C1)C(=O)CC3 | 20
O=C1CCc2cc3cc(c2N1CC1CC(F)(F)C1)OC/C=C/CO[C@H]1C[C@@H](CO)N(C1)c1cc(n2ncc(Cl)c2n1)N3 | 7.94
CN1C(=O)CCc2cc3cc(c21)OC/C=C/CO[C@H]1C[C@@H](CO)N(C1)c1cc(n2ncc(Cl)c2n1)N3 | 3.16

— ChEMBL document CHEMBL4014321, “Discovery of Pyrazolo[1,5-a]pyrimidine B-Cell Lymphoma 6 (BCL6) Binders and Optimization to High Affinity Macrocyclic Inhibitors” (J Med Chem, 2017)
